“Also recorded” adds a separate entry of the source.
Key:
[1] = test system: blasting/activated CD25+CD4+ T cells; test: Phase 1 trial: N-glycan branching in T cells by L-PHA flow cytometry; format: in vivo, human; settings: for average increase of L-PHA binding in blasting/activated CD25+CD4+ T cells: oral
Method: (§1) Based on its immunomodulatory effects, a FDA approved (IND 122235) dose escalation was carried out, open-label NIH funded Phase 1 mechanistic clinical trial of oral GIcNAc in MS patients (RRMS and PMS) on glatiramer acetate and not in acute relapse, with the primary endpoint an increase in N-glycan branching in T cells. This endpoint was used as a surrogate marker for GIcNAc's biological activity. Three doses were evaluated: 1 g TID (3 g total, n=13), 2 g TID (6 g total, n=18) and 4 g TID (12 g total, n=16). Subjects had baseline blood drawn weekly four times, then started on oral GIcNAc with 4 weekly blood draws (FIG. 8A).
To assess the primary endpoint (increased N-glycan branching in T cells), flow cytometry was used to assess binding of the plant lectin L-PHA (Phaseolus vulgaris leukoagglutinin) to T cells. L-PHA is a highly sensitive and specific measure of N-glycan branching. L-PHA binding was increased in blasting/activated CD25^+CD4^+ T cells in the 12 g (p=0.0065) and 6 g (p=0.037) but not the 3 g cohort, with average increases of 7%, 3% and 1.7% respectively (FIGS. 8H and 8I); the latter indicative of a dose response.

[2] = mouse, in vivo, po
MS patients [3] = test: Phase 1 trial: serum neurofilament light chain (Nfl), single molecule array immunoassay; format: in vivo, human; settings: subjects with elevated baseline Nfl from all three dose groups, week 3 and 4 of treatment, p=0.0045, n=18
Method: Comparison of the change in serum Nfl concentration in subjects with elevated baseline levels (combined from the 3 g, 6 g, and 12 g cohorts) showing change from pre-GIcNAc to during weeks 3-4 of GIcNAc treatment. The four data points pre-GIcNAc (black dots) and the two data points from week 3 and 4 during GIcNAc treatment are averaged, normalized to pre-GIcNAc levels and shown as black and red dots connected by black lines for each subject, respectively. Nfl was measured by an ultra sensitive single molecule array immunoassay. P-value by 1-tailed Wilcoxon matched-pairs signed rank test.
Neurons exclusively express Nfl and release it when damaged, with high serum Nfl levels (>˜40 pg/ml) serving as a robust biomarker for ongoing neuro-axonal damage in MS. This analysis was done blinded by Jens Kuhle (University of Basel), who has published extensively on Nfl in MS.

MS patients [4] = test: Phase 1 trial: four-week confirmed improvement in disability (EDSS); format: in vivo, human; settings: unblinded
Method: Four-week confirmed improvement in disability (EDSS) was also evaluated in the 6 g and 12 g cohorts. […] Baseline EDSS scores were compared with scores after 4 weeks of oral GIcNAc that were confirmed 4 weeks later at the last study visit.

[5] = Phase 1 trial: serum HexNAc levels by LC-MS/MS; format: in vivo, human; settings: 6 g and 12 g cohorts, after stopping oral GIcNAc
MS patients [6] = test: Open-label Phase 1 trial of oral GIcNAc in MS: safety, tolerability, relapse rate; format: in vivo, human
Method: as §1
The annualized relapse rate on GIcNAc in the combined group was 0.277 (from a single relapse in a subject on the 6 g dose).

newborn PL/J mice = test: Primary myelination in newborn pups, GIcNAc given to pregnant/lactating mothers in drinking water; format: in vivo, mouse
Method: GIcNAc treatment of mouse pups—GIcNAc (1 mg/mL) in drinking water was provided to pregnant PLJ mothers or mothers who recently delivered pups and were nursing their young. After the treatment period, pups were anesthetized with isoflurane and cardiac perfused with PBS. Pup and fetal brains were removed and homogenized by trituration using glass pipettes in PBS with 5% Fetal Bovine Serum (FBS).
Cells were then stained with antibodies and analyzed by flow cytometry using antibodies described herein. For immunofluorescence analysis of pup brains, pups were quickly decapitated, brains harvested and fixed in 4% paraformaldehyde overnight.
For neural stem cell (NSC) immunofluorescence, whole neurospheres were seeded onto laminin-coated coverslips (Neuvitro) in proliferation medium. After 24 hours, proliferation media was removed and replaced with differentiation medium (same components as proliferation medium but excluding EGF, bFGF, and heparin) to induce differentiation. For analysis of mouse brains, brains were incubated in 30% sucrose for at least 72 hours, embedded in OCT (Tissue-tek), frozen for at least 48 hours at −80° C., and then cut at 40 microns on a cryostat. Multiple sections from −1 bregma to −2.5 bregma were then stained with antibodies for MBP (1:100; MAB386, Millipore), Olig2 (1:200; AB9610, Millipore), CC1 (1:100; OP90, Millipore), degraded MBP (1:200, AB5864, Millipore) and Amyloid Precursor Protein (APP, 1:200; clone 22C11). After overnight incubation with primary antibody, tissues were washed and incubated with secondary antibodies: goat anti-rat Alexa-fluor 488 (1:200, Thermofisher), goat anti-rabbit TxRd (1:200, Thermofisher). APP is a marker for neuro-axonal damage while co-staining for CC1 and Olig2 are markers of mature oligodendrocytes. In order to examine the amount of myelin, slices were incubated in Fluoromyelin (1:300; F34651, Thermofisher) for 45 minutes. Images were acquired on a Keyence fluorescence microscope. Mean fluorescence intensity of the medial corpus callosum was measured using ImageJ.
To assess whether oral GIcNAc promotes oligodendrogenesis in vivo in the absence of inflammation, primary myelination was examined in mice during the early perinatal period. GIcNAc or vehicle was provided to pregnant/lactating female mice from E12.5, postnatal day 3 (P3) or P5 through to P8. Indeed, oral GIcNAc increased N-glycan branching in PDGFRα^+ cells as well as the number of pre-oligodendrocytes (PDGFRα^+O4^+), immature oligodendrocytes (PDGFRα-O4^+) and mature oligodendrocytes (MBP*), with little effect on the number of OPC's ([…]) (FIG. 2B and FIG. 6A).

[7] = mothers treated from E12.5, P3 or P5 to P8, pup brains

Question: With CC(=O)N[C@H]1C(O)O[C@H](CO)[C@@H](O)[C@@H]1O (some centres unmarked) [GIcNAc, N-acetylglucosamine] as the compound, how does the “L-PHA binding in activated CD25+CD8+ T cells, resting CD25-CD4+ and CD25-CD8+ T cells and activated/resting CD19+ B cells” value ([1]; oral GIcNAc, data not shown) read?
Answer: The value was “no increase”.

Question: What about the “average increase of L-PHA binding in blasting/activated CD25+CD4+ T cells” value ([1]; 3 g cohort (not significant)) of the same compound?
Answer: The value was 1.7%.

Question: And the “average increase of L-PHA binding in blasting/activated CD25+CD4+ T cells” value ([1]; 6 g cohort (p=0.037))?
Answer: Its value is 3%.

Question: And the “average increase of L-PHA binding in blasting/activated CD25+CD4+ T cells” value ([1]; 12 g cohort (p=0.0065))?
Answer: The value was 7%.

Question: And the “L-PHA binding to blasting/activated CD25+CD4+ T cells during the washout period vs pre-GIcNAc or during GIcNAc” value ([1]; post-GIcNAc, 6 g and 12 g cohorts)?
Answer: Its value is “no significant difference”.

Question: What about the “crossing of the blood brain barrier” value [2] of the same compound?
Answer: Its value is “able to cross the blood brain barrier”.

Question: What about the “secretion in breast milk” value [2] of the same compound?
Answer: The value was “secreted at sufficient levels in breast milk to raise UDP-GIcNAc in the brains of suckling pups”.

Question: What about the “serum Nfl levels” value (MS patients [3]) of the same compound?
Answer: The value was “significantly reduced; also recorded: reduces”.

Question: What about the “subjects with 4-week confirmed improvement in clinical disability (EDSS)” value (MS patients [4]; 6 g/day, 4 of 18 subjects) of the same compound?
Answer: Its value is 22%.

Question: What about the “subjects with 4-week confirmed improvement in clinical disability (EDSS)” value (MS patients [4]; 12 g/day, 5 of 16 subjects) of the same compound?
Answer: The value was 31%.

Question: What about the “serum HexNAc levels during the washout period” value [5] of the same compound?
Answer: The value was “rapidly declined back to baseline”.

Question: What about the “annualized relapse rate on GIcNAc” value (MS patients [6]; combined group, a single relapse in a subject on the 6 g dose) of the same compound?
Answer: The value was 0.277.

Question: And the “subjects with mild GI symptoms (gas, bloating, loose stool)” value (MS patients [6]; oral, 12 g per day (4 g TID))?
Answer: The value was about 50%.

Question: And the “discontinuation due to GI symptoms” value (MS patients [6]; oral, all doses)?
Answer: Its value is “No subject discontinued”.

Question: What about the safety (MS patients [6]; oral, all doses (3 g, 6 g, 12 g per day), 4 weeks) of the same compound?
Answer: Its safety is “safe”.

Question: What about the “subjects with mild GI symptoms (gas, bloating, loose stool)” value (MS patients [6]; oral, the other doses (3 g, 6 g per day)) of the same compound?
Answer: The value was “not”.

Question: And the “primary myelination: staining for myelin (fluoromyelin)” value (newborn PL/J mice; P3-8)?
Answer: The value was “increased”.

Question: And the “primary myelination: staining for myelin basic protein (MBP)” value (newborn PL/J mice; P3-8)?
Answer: The value was “increased”.

Question: And the “N-glycan branching in PDGFRα+ cells” value (newborn PL/J mice; [7])?
Answer: The value was “increased”.

Question: What about the “number of OPC's (PDGFRα−O4+)” value (newborn PL/J mice; [7]) of the same compound?
Answer: Its value is “little effect”.

Question: What about the “number of immature oligodendrocytes (PDGFRα-O4+)” value (newborn PL/J mice; [7]) of the same compound?
Answer: Its value is “increased”.

Question: And the “number of mature oligodendrocytes (MBP)” value (newborn PL/J mice; [7])?
Answer: The value was “increased”.

Question: What about the “number of pre-oligodendrocytes (PDGFRα+O4+)” value (newborn PL/J mice; [7]) of the same compound?
Answer: Its value is “increased”.
